From PubChem BioAssay AID179 (DTP/NCI, 2004)
Calls of active or inactive are those of the source.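 How the source made its calls: active means compounds giving half or more protection of infected cells from virus-caused growth loss, again on retest; inactive means the rest.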

System: CEM cells HIV-1 protection, formazan growth assay
Experiment: NCI AIDS Antiviral Assay
Details: for IC50: measured here: growth of uninfected CEM cells
Procedure, shortened: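 Screen of anti-HIV-1 activity in human CEM cells using a formazan-based growth measurement at five drug concentrations. Hits with 50% or greater protection were repeated, and confirmation required reproducible complete protection.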

| SMILES | EC50 [µM] | IC50 [µM] | outcome |
| --- | --- | --- | --- |
| C/C=C1/[C@@H]2C[C@H]3C4=Nc5ccccc5C4(C4[C@@H](O)ON3[C@@H]14)[C@@H]2C(=O)OC | > 200 | > 200 |  |
| O/N=C1/CCCC/C1=C\c1ccc(Cl)c(Cl)c1 |  |  | inactive |
| COc1ccc2c(c1)[n+](=O)c(C(=O)C/C(=N/OCCCc1ccccc1)C(=O)NC13CC4CC(CC(C4)C1)C3)c(C)n2[O-] | > 39.8 | > 39.8 |  |
| Cc1c(C)c2c(c3c1OC(C)(C)CC3)CCC(C)(C)O2 | > 135 | 74.1 |  |
| O=c1c2ccccc2nc2[nH][nH]c(=S)n12 | > 200 | 195 |  |
| Cc1c(C)c(C)n(C2OC(CO)C(O)C(O)C2O)c(=S)c1C#N (stereo unspecified) | > 100 | > 100 |  |
| CC1=CC(=O)/C(=C/N2CCNC2=S)C(=O)O1 | > 200 | > 200 |  |
| COc1ccc(-c2nnc(-c3ccncc3)o2)cc1 | > 200 | > 200 |  |
| O=c1ccc2cc3ccoc3c(O)c2o1 | > 447 | 135 |  |
| N/C(=N\NS(=O)(=O)c1ccccc1)C(F)(F)F | > 200 | 107 |  |
| O=C1NC(=O)C2(CCCCCC2)N1 | > 200 | > 200 |  |
| COC1=CC(C)C2C[C@H]3O[C@H](O)C[C@H]4C(C)C(=O)C(O)C([C@@]2(C)C1=O)[C@@]34C (stereo partly specified) |  |  | inactive |
| Oc1ccc(-c2nc3ccccc3s2)c(O)c1 | > 148 | 27.5 |  |
| CCCCC(O)(c1ccccc1)C(O)(c1ccccc1)c1c(F)c(F)c(F)c(F)c1F (stereo unspecified) | > 200 | 39.8 |  |
| COc1cc(Cc2cc3c(c(C(=O)O)c2Br)OCO3)cc(OC)c1OC | > 200 | 44.7 |  |
| COc1ccc(SSc2ccc(OC)n[n+]2[O-])[n+]([O-])n1 | > 200 | 1 |  |
| CCCCCCCCCCCCCCCCNc1ccn(C2CC(OP(=O)(O)OCC3OC(n4cc(C)c(=O)[nH]c4=O)CC3N=[N+]=[N-])C(CO)O2)c(=O)n1 (stereo unspecified) | 0.182 | 77.6 |  |
| Cc1nc(OCc2ccccc2)c2ncn(CCO)c2n1 | > 200 | > 200 |  |
| CCCCCC(=O)Nc1n[nH]nc1C#N | > 200 | > 200 |  |
| CC(NNC(=O)c1ccncc1)c1ccc(F)cc1 (stereo unspecified) | > 200 | 12.3 |  |
| Nc1ncc(/C=N/O)c(NCC2(CO)CC(CCc3ccccc3)C2)n1 (stereo unspecified) | > 2 | 0.603 |  |
| Cc1cc(S(=O)(=O)Nc2nc(Nc3ccc(Cl)cc3)nn2C)c(S)cc1Cl | > 200 | 83.2 |  |

| SMILES | EC50 [µM] | IC50 [µM] | outcome |
| --- | --- | --- | --- |
| COc1ccc(NC(=O)c2c(NC(C)=O)c(C#N)c3n2CCC3)cc1 | > 200 | > 200 |  |
| O=C(O)C(=O)/C=C\c1ccc(Cl)cc1 | > 617 | 191 |  |
| Clc1ncccc1SSc1cccnc1Cl | > 200 | 89.1 |  |
| O=c1nc(Oc2c(F)c(F)c(F)c(F)c2F)ccn1C1OC(CO)C(O)C1O (stereo unspecified) | > 200 | 120 |  |
| COC1(O)C(=O)c2ccccc2OC1(OC)c1ccccc1 (stereo unspecified) | > 200 | 112 |  |
| CCCCC(c1nc2c(c3c1CCCC3)CCCC2)C(O)(C(F)(F)F)C(F)(F)F (stereo unspecified) | > 200 | 38.9 |  |
| CC(CCC(=O)O)[C@H]1CCC2[C@H]3C(CC(=O)[C@@]21C)[C@@]1(C)CCC(O)C[C@H]1C[C@@H]3O (stereo partly specified) | > 200 | > 200 |  |
| O=C(Nc1ccc([N+](=O)[O-])cn1)Nc1cc([N+](=O)[O-])ccc1F | > 200 | 17.4 |  |
| O=S(=O)(O)NC1CCCCC1 | > 200 | > 200 |  |
| COC(=O)C1(C)CCCC2(C)c3cc(OC)ccc3C(=O)C(Cl)C12 (stereo unspecified) | > 200 | 30.2 |  |
| [Cu+2].[O-]/C(=N\N=C/c1ccccc1F)c1ccncc1.[O-]/C(=N\N=C\c1ccccc1F)c1ccncc1 | > 100 | 16.2 |  |
| [NH-]C(CCC(N)=O)C(=O)O.[NH-]C(CCCCN)C(=O)O.[Zn+2] (stereo unspecified) | > 200 | > 200 |  |
| CSc1nnc(CCC(=O)Nc2c(C)cccc2C)o1 | > 309 | > 309 |  |
| COc1ccc(/C=C2/SC(c3ccc(Cl)cc3)N(NC(=O)CCCCCCCCC(=O)NN3C(=O)/C(=C\c4ccc(OC)c(OC)c4)SC3c3ccc(Cl)cc3)C2=O)cc1OC (stereo unspecified) | 67.6 | 182 |  |
| N#C[C@H]1Nc2ccccc2[C@@H](O)C1O (stereo partly specified) | > 1320 | > 1320 |  |
| CCN(CC)CCOC(=O)Cc1cccc2c(=O)cc(-c3ccccc3)oc12 |  |  | inactive |
| CC1CC[P+](C)(Cc2ccccc2)C1 (mixture of isomers) | > 437 | 162 |  |
| COc1ccc([C@@H]2CC(=O)NCCCCNCCCN2)cc1 | > 200 | > 200 |  |
| Cc1cccnc1NC(=S)Nc1ncccc1C | > 200 | 186 |  |
| Nc1ccc(C(=O)N/C(=C\c2ccc3c(c2)OCO3)c2nc3ccc4c(c3[nH]2)C(=O)c2ccccc2C4=O)cc1 |  |  | inactive |
| C/C(=C\CCC1=CC(=O)OC1)CCC1C2C(=O)CC(C)[C@@]3(C)CC[C@]1(C)[C@@]23C (stereo partly specified) | > 200 | 34.7 |  |
| O=C(/C=C/c1ccccc1)c1cc(C(=O)/C=C/c2ccccc2)c(O)cc1O | > 200 | 69.2 |  |

| SMILES | EC50 [µM] | IC50 [µM] | outcome |
| --- | --- | --- | --- |
| CCN(CC)c1nc(=O)c(C(=O)C(C)(C)C)c(C(C)(C)C)o1 | > 200 | > 200 |  |
| CCCCN1C[C@H](OC(=O)CCC)[C@@H](OC(=O)CCC)[C@H](OC(=O)CCC)[C@H]1COC(=O)CCC | > 200 | > 200 |  |
| COC(=O)c1cc(C(=CCC(=O)O)c2cc(Cl)c(OC)c(C(=O)OC)c2)cc(Cl)c1OC | > 200 | 97.7 |  |
| O=C1/C(=N\O)C(c2ccccc2)Oc2ccccc21 (stereo unspecified) | 20.9 | 38 |  |
| CC(=O)Nc1ccc(S(=O)(=O)N/N=C/c2cc(I)cc([N+](=O)[O-])c2O)cc1 | > 501 | 79.4 |  |
| CC1=CCC2CC1NC(=O)CCOCCC(=O)NC2(C)C (stereo unspecified) | > 100 | > 100 |  |
| C=C1CN=C(Nc2ccc(Cl)cc2)S1 | > 200 | 75.9 |  |
| CC1SC2(CC3CCC2(C)C3(C)C)OC1=O (stereo unspecified) | > 20.9 | > 20.9 |  |
| COc1cc2c(cc1OC)C1=Cc3cc(OC)c(OC)cc3C(C)N1C=C2 (stereo unspecified) | > 355 | 29.5 |  |
| CP1CCC(O)(c2ccccc2)CC1 (stereo unspecified) | > 200 | > 200 |  |
| C=CCn1c(N)c(N=O)c(=O)n(C)c1=O | > 200 | > 200 |  |
| C=CC12CN3C4C3C1C1(CCC42)C(=O)N(COCC[Si](C)(C)C)c2ccccc21 (stereo unspecified) | > 63.1 | 25.7 |  |
| Clc1ccc2c(c1)N(CCCN1CCCC13CCCCC3)c1ccccc1S2 | > 200 | 102 |  |
| O=C(CCc1nc(=S)[nH][nH]1)Nc1ccccc1Cl | > 457 | > 457 |  |
| C=C(C)C1CC[C@]2(C(=O)O)CCC3(C)[C@H](CCC4[C@@]5(C)CC[C@H](OC6OC(CO)C(O)C6OC6OC(C)C(O)C(O)C6O)[C@@](C)(CO)C5CC[C@]43C)C12 (stereo partly specified) |  |  | inactive |
| OCC(O)C(OC1OC(CO)C(O)C(O)C1O)c1nn(-c2ccc(F)cc2)c2nc3cc(Cl)c(Cl)cc3cc12 (stereo unspecified) |  |  | inactive |
| CSC(SC)=C1Sc2cccc(Cl)c2S1 | > 9.33 | > 9.33 |  |
| O=C(c1ccc(S(=O)(=O)c2ccccc2)cc1)c1ccc(S(=O)(=O)c2ccccc2)cc1 | > 200 | > 200 |  |
| CC1=Nc2ccccc2C12C(c1ccccc1)C(c1ccccc1)C(=O)N1c3ccccc3CC12 (stereo unspecified) | > 79.4 | > 79.4 |  |
| CC(=O)NC(C=O)C(O[C@H](C)C(=O)NC(C)C(=O)NC(CCC(N)=O)C(=O)OCc1ccccc1)C(O)C(O)COC(=O)CCNc1c2ccccc2nc2cccc([N+](=O)[O-])c12 (stereo partly specified) | > 21.4 | 15.1 |  |
| CC1=C(C(=O)NCc2ccccc2)C(c2ccccc2O)C(C(=O)NCc2ccccc2)=C(C)N1 | > 200 | 33.9 |  |
| O=NN(CCCl)C(=O)NC1CCCCC1 | > 1070 | 35.5 |  |

| SMILES | EC50 [µM] | IC50 [µM] | outcome |
| --- | --- | --- | --- |
| CC1=NN(C(=O)c2ccc(Cl)cc2)C(=O)/C1=C/c1ccc(O)cc1 | > 15.1 | > 15.1 |  |
| NCc1ccccc1C1CSCSC1 | > 575 | 288 |  |
| O=Nc1c(O)c(S(=O)(=O)O)cc2cc(S(=O)(=O)O)ccc12 | > 200 | 33.1 |  |
| CC(C)OP(=O)(OC(C)C)c1ccc2c(c1)OCCOCCOCCOCCO2 | > 200 | > 200 |  |
| CC(C)(CO)C(O)C(=O)NCCS(=O)(=O)O (stereo unspecified) | > 200 | > 200 |  |
| COc1ccc(C/C(=N/O)C(=O)NCCc2cc(Br)c(OCCCN(C)C)c(Br)c2)cc1Br |  |  | inactive |
| CCCCCCC(=O)C/C(CCC(=O)N(Cc1ccccc1)Cc1ccccc1)=N\Nc1ccc([N+](=O)[O-])cc1[N+](=O)[O-] | > 12.3 | > 12.3 |  |
| O=CC(=C(I)I)c1ccccc1 | > 2 | 1.05 |  |
| CCC(CCCN)Nc1cc(OC)cc2cccnc12 (stereo unspecified) | > 200 | 6.31 |  |
| CCCCCCCCCCCCCCCCCCOCC(CO[P+](=O)O)OCCCCCCCCCCCCCCCCCC (stereo unspecified) | > 50.1 | > 50.1 |  |
| O=C1c2ccc(O)c(O)c2C(=O)c2c(O)ccc(O)c21 | > 63.1 | 11.7 |  |
| COP1(=O)NCc2ncccc2O1 (stereo unspecified) | > 200 | > 200 |  |
| CCOC(=O)NC(=O)c1cn(CCN2CCN(C(=O)CCCCCCCCCCNc3ncnc4c3ncn4C3OC(CO)C(O)C3O)CC2)c(=O)[nH]c1=O (stereo unspecified) |  |  | inactive |
| Cc1nc2c(=O)[nH]c3ccccc3c2o1 | > 200 | > 200 |  |
| N#CC1(C#N)N[C@@H](c2ccsc2)[C@H]2C(=O)N(c3ccccc3)C(=O)[C@H]21 | > 200 | 53.7 |  |
| COCCN(C(=O)c1ccccc1)C1CCC(=O)c2[nH]c3ccccc3c21 (stereo unspecified) | > 200 | 3.63 |  |
| Cc1ccc2nc(-c3ccc(N=NNc4ccc(-c5nc6ccc(C)c(S(=O)(=O)O)c6s5)cc4)cc3)sc2c1S(=O)(=O)O | 174 | > 200 |  |
| O=C(O)CCCCCNC(=O)CCC(CN(CC(=O)OCc1ccccc1)CC(=O)OCc1ccccc1)N(CC(=O)OCc1ccccc1)CC(=O)OCc1ccccc1 (stereo unspecified) |  |  | inactive |
| O=C(NC(Nc1ccc(F)c(Cl)c1)(C(F)(F)F)C(F)(F)F)OCc1ccccc1 | > 200 | 30.9 |  |
